Results on one molecule are retold here after paper PMC5218480 (PLoS ONE, 2017).

For the assay, the system named is MV-4-11 cells. The assay is described as follows: Gene expression microarray analysis (Affymetrix PrimeView) and GSEA. In kind it is cell-based, human. More on the design: RFU PODN (11730768_x_at) / Fold change /veh PODN (11730768_x_at) / RFU LINC00158 (11744669_a_at) / Fold change /veh LINC00158 (11744669_a_at) / RFU DUSP10 (11751237_a_at) / Fold change /veh DUSP10 (11751237_a_at) / RFU ID3 (11757404_x_at) / Fold change /veh ID3 (11757404_x_at) / RFU PLEKHG5 (11737974_s_at) / Fold change /veh PLEKHG5 (11737974_s_at) / RFU LRRC4B (11730491_at) / Fold change /veh LRRC4B (11730491_at) / RFU GIMAP4 (11747438_a_at) / Fold change /veh GIMAP4 (11747438_a_at) / RFU KRT8 (11758183_x_at) / Fold change /veh KRT8 (11758183_x_at) / RFU CNN1 (11734310_a_at) / Fold change /veh CNN1 (11734310_a_at) / RFU VPS37D (11726825_at) / Fold change /veh VPS37D (11726825_at) / RFU C10orf10 (11716522_x_at) / Fold change /veh C10orf10 (11716522_x_at) / RFU KIR2DL2 /// KIR2DL4 /// KIR2DL5A /// KIR2DL5B /// KIR2DS1 /// KIR2DS2 /// KIR2DS3 /// KIR2DS4 /// KIR3DL3 /// KIR3DL3 /// KIR3DS1 (11738374_at) / Fold change /veh KIR2DL2 /// KIR2DL4 /// KIR2DL5A /// KIR2DL5B /// KIR2DS1 /// KIR2DS2 /// KIR2DS3 /// KIR2DS4 /// KIR3DL3 /// KIR3DL3 /// KIR3DS1 (11738374_at) / RFU C1QL1 (11718748_at) / Fold change /veh C1QL1 (11718748_at) / RFU TMPRSS4 (11747572_a_at) / Fold change /veh TMPRSS4 (11747572_a_at) / RFU HAMP (11756126_x_at) / Fold change /veh HAMP (11756126_x_at) / RFU RNFT2 (11725882_a_at) / Fold change /veh RNFT2 (11725882_a_at) / RFU NR4A2 (11747474_a_at) / Fold change /veh NR4A2 (11747474_a_at) / RFU ABCC12 (11746883_a_at) / Fold change /veh ABCC12 (11746883_a_at) / RFU TMEM136 (11760407_x_at) / Fold change /veh TMEM136 (11760407_x_at) / RFU CLDN22 /// WWC2 (11732394_at) / Fold change /veh CLDN22 /// WWC2 (11732394_at) / RFU HLA-DPB1 (11760878_x_at) / Fold change /veh HLA-DPB1 (11760878_x_at) / RFU SPINT1 (11716480_a_at) / Fold change /veh SPINT1 (11716480_a_at) / RFU GAP43 (11754022_s_at) / Fold change /veh GAP43 (11754022_s_at) / RFU A4GNT (11735810_at) / Fold change /veh A4GNT (11735810_at) / RFU PRB3 (11715151_x_at) / Fold change /veh PRB3 (11715151_x_at) / RFU TUBB4B (11761932_at) / Fold change /veh TUBB4B (11761932_at) / RFU CAPN14 (11732068_a_at) / Fold change /veh CAPN14 (11732068_a_at) / RFU TMCC2 (11721928_a_at) / Fold change /veh TMCC2 (11721928_a_at) / RFU IRGQ (11745062_a_at) / Fold change /veh IRGQ (11745062_a_at) / RFU FAM174B (11720279_a_at) / Fold change /veh FAM174B (11720279_a_at) / RFU TMPRSS4 (11748680_a_at) / Fold change /veh TMPRSS4 (11748680_a_at) / RFU FAM212B (11763350_a_at) / Fold change /veh FAM212B (11763350_a_at) / RFU PLEKHG5 (11743358_a_at) / Fold change /veh PLEKHG5 (11743358_a_at) / RFU ZSCAN30 (11745921_a_at) / Fold change /veh ZSCAN30 (11745921_a_at) / RFU CMKLR1 (11741424_a_at) / Fold change /veh CMKLR1 (11741424_a_at) / RFU LOC101060620 /// MAPK8IP1 (11723275_at) / Fold change /veh LOC101060620 /// MAPK8IP1 (11723275_at) / RFU SPTSSB (11747773_x_at) / Fold change /veh SPTSSB (11747773_x_at) / RFU PRSS12 (11739890_at) / Fold change /veh PRSS12 (11739890_at) / RFU BIN1 (11741810_x_at) / Fold change /veh BIN1 (11741810_x_at) / RFU WNT11 (11732464_a_at) / Fold change /veh WNT11 (11732464_a_at) / RFU C10orf10 (11716521_a_at) / Fold change /veh C10orf10 (11716521_a_at) / RFU C5orf56 (11738089_at) / Fold change /veh C5orf56 (11738089_at) / RFU CYB561 (11721691_x_at) / Fold change /veh CYB561 (11721691_x_at) / RFU ANKRD19P (11752326_a_at) / Fold change /veh ANKRD19P (11752326_a_at) / RFU OR2T12 /// OR2T33 /// OR2T8 (11738714_s_at) / Fold change /veh OR2T12 /// OR2T33 /// OR2T8 (11738714_s_at) / RFU VCAN (11748164_a_at) / Fold change /veh VCAN (11748164_a_at) / RFU JSRP1 (11732532_at) / Fold change /veh JSRP1 (11732532_at) / RFU KRTAP10-11 (11738290_x_at) / Fold change /veh KRTAP10-11 (11738290_x_at) / RFU MYO3A (11730013_a_at) / Fold change /veh MYO3A (11730013_a_at) / RFU EBF3 (11725865_a_at) / Fold change /veh EBF3 (11725865_a_at) / RFU CAMK2N1 (11719241_x_at) / Fold change /veh CAMK2N1 (11719241_x_at) / RFU C5orf56 (11738088_a_at) / Fold change /veh C5orf56 (11738088_a_at) / RFU OLFML3 (11715873_a_at) / Fold change /veh OLFML3 (11715873_a_at) / RFU LOC100653217 /// NTM (11731650_a_at) / Fold change /veh LOC100653217 /// NTM (11731650_a_at) / RFU MAPK11 (11762145_a_at) / Fold change /veh MAPK11 (11762145_a_at) / RFU FIZ1 (11724087_x_at) / Fold change /veh FIZ1 (11724087_x_at) / RFU OASL (11726364_x_at) / Fold change /veh OASL (11726364_x_at) / RFU SOX15 (11748057_x_at) / Fold change /veh SOX15 (11748057_x_at) / RFU CD79A (11719716_a_at) / Fold change /veh CD79A (11719716_a_at) / RFU HIST1H1D (11736915_at) / Fold change /veh HIST1H1D (11736915_at) / RFU CASKIN2 (11723855_a_at) / Fold change /veh CASKIN2 (11723855_a_at) / RFU LOC730098 (11760151_x_at) / Fold change /veh LOC730098 (11760151_x_at) / RFU OR4N2 (11742367_at) / Fold change /veh OR4N2 (11742367_at) / RFU PRRT2 (11749266_a_at) / Fold change /veh PRRT2 (11749266_a_at) / RFU SNX32 (11753110_a_at) / Fold change /veh SNX32 (11753110_a_at) / RFU CDHR5 (11726645_a_at) / Fold change /veh CDHR5 (11726645_a_at) / RFU RCAN1 (11760418_a_at) / Fold change /veh RCAN1 (11760418_a_at) / RFU FAM167A (11723789_a_at) / Fold change /veh FAM167A (11723789_a_at) / RFU FAM26E (11764081_at) / Fold change /veh FAM26E (11764081_at) / RFU ISYNA1 (11749810_s_at) / Fold change /veh ISYNA1 (11749810_s_at) / RFU ACY1 (11761880_at) / Fold change /veh ACY1 (11761880_at) / RFU 11764098_at / Fold change /veh 11764098_at / RFU SAMD14 (11745864_x_at) / Fold change /veh SAMD14 (11745864_x_at) / RFU NPB (11741838_a_at) / Fold change /veh NPB (11741838_a_at) / RFU TMPRSS6 (11731388_a_at) / Fold change /veh TMPRSS6 (11731388_a_at) / RFU KRTAP10-2 (11738614_at) / Fold change /veh KRTAP10-2 (11738614_at) / RFU ARHGAP8 /// PRR5-ARHGAP8 (11727945_x_at) / Fold change /veh ARHGAP8 /// PRR5-ARHGAP8 (11727945_x_at) / RFU KRTAP5-7 /// NADSYN1 (11734609_at) / Fold change /veh KRTAP5-7 /// NADSYN1 (11734609_at) / RFU RASL12 (11751679_a_at) / Fold change /veh RASL12 (11751679_a_at) / RFU CDKN2B (11736163_a_at) / Fold change /veh CDKN2B (11736163_a_at) / RFU PRF1 (11729649_at) / Fold change /veh PRF1 (11729649_at) / RFU, ZNF638 /// ZNF638-IT1 / Fold change vs veh, ZNF638 /// ZNF638-IT1 / RFU, PANK3 / Fold change vs veh, PANK3 / RFU, SH3YL1 / Fold change vs veh, SH3YL1 / RFU, ZEB2 / Fold change vs veh, ZEB2 / RFU, NRIP1 / Fold change vs veh, NRIP1 / RFU, PTTG1IP / Fold change vs veh, PTTG1IP / RFU, CAPN2 / Fold change vs veh, CAPN2 / RFU, MED14 / Fold change vs veh, MED14 / RFU, SNORA58 / Fold change vs veh, SNORA58 / RFU, C1orf63 / Fold change vs veh, C1orf63 / RFU, LRRFIP1 / Fold change vs veh, LRRFIP1 / RFU, NDUFAF7 / Fold change vs veh, NDUFAF7 / RFU, SLC12A2 / Fold change vs veh, SLC12A2 / RFU, IBTK / Fold change vs veh, IBTK / RFU, ESF1 / Fold change vs veh, ESF1 / Fold change vs veh, TMEM50B / RFU, TAOK1 / Fold change vs veh, TAOK1 / RFU, ACBD3 / Fold change vs veh, ACBD3 / RFU, TMA16 / Fold change vs veh, TMA16 / RFU, RWDD3 / Fold change vs veh, RWDD3 / RFU, BCAT1 / Fold change vs veh, BCAT1 / RFU, EDEM3 / Fold change vs veh, EDEM3 / RFU, TMEM33 / Fold change vs veh, TMEM33 / RFU, WDR75 / Fold change vs veh, WDR75 / RFU, AHCTF1 / Fold change vs veh, AHCTF1 / RFU, TFRC / Fold change vs veh, TFRC / RFU, ZDHHC17 / Fold change vs veh, ZDHHC17 / RFU, NOM1 / Fold change vs veh, NOM1 / RFU, ARL8B / Fold change vs veh, ARL8B / RFU, ZBTB11 / Fold change vs veh, ZBTB11 / RFU, TAMM41 / Fold change vs veh, TAMM41 / RFU, KIAA1704 /// LOC100996395 / Fold change vs veh, KIAA1704 /// LOC100996395 / RFU, ING1 / Fold change vs veh, ING1 / RFU, TRMT61B / Fold change vs veh, TRMT61B / RFU, FUBP3 / Fold change vs veh, FUBP3 / RFU, TP53 / Fold change vs veh, TP53 / RFU, TNKS2 / Fold change vs veh, TNKS2 / RFU, ZFP14 / Fold change vs veh, ZFP14 / RFU, ACTR2 / Fold change vs veh, ACTR2 / RFU, PPP3R1 / Fold change vs veh, PPP3R1 / RFU, PIK3R1 / Fold change vs veh, PIK3R1 / RFU, HNRNPA1 / Fold change vs veh, HNRNPA1 / RFU, RNF170 / Fold change vs veh, RNF170 / RFU, ZNF28 / Fold change vs veh, ZNF28 / RFU, RNGTT / Fold change vs veh, RNGTT / RFU, OGT / Fold change vs veh, OGT / RFU, BRD1 / Fold change vs veh, BRD1 / RFU, MARS / Fold change vs veh, MARS / RFU, ZNF655 / Fold change vs veh, ZNF655 / RFU, FAHD1 / Fold change vs veh, FAHD1 / RFU, BDP1 / Fold change vs veh, BDP1 / RFU, LRRCC1 / Fold change vs veh, LRRCC1 / RFU, ARID1A / Fold change vs veh, ARID1A / RFU, ZNF146 / Fold change vs veh, ZNF146 / RFU, ZNF330 / Fold change vs veh, ZNF330 / RFU, GPN3 / Fold change vs veh, GPN3 / RFU, C9orf123 / Fold change vs veh, C9orf123 / RFU, N4BP2L2 / Fold change vs veh, N4BP2L2 / RFU, ARFIP1 / Fold change vs veh, ARFIP1 / RFU, FAM179B / Fold change vs veh, FAM179B / RFU, BCL10 / Fold change vs veh, BCL10 / RFU, UHRF1BP1L / Fold change vs veh, UHRF1BP1L / RFU, BET1 / Fold change vs veh, BET1 / RFU, CNOT2 / Fold change vs veh, CNOT2 / RFU, ZNF268 / Fold change vs veh, ZNF268 / Fold change vs veh, ZNF507 / RFU, DGCR2 / Fold change vs veh, DGCR2 / RFU, WDSUB1 / Fold change vs veh, WDSUB1 / Fold change vs veh, HSP90B1 /// MIR3652 / RFU, ADSS / Fold change vs veh, ADSS / RFU, GK / Fold change vs veh, GK / RFU, ZNF148 / Fold change vs veh, ZNF148 / RFU, TAF9 / Fold change vs veh, TAF9 / RFU, SLC1A5 / Fold change vs veh, SLC1A5 / RFU, SLMO2 / Fold change vs veh, SLMO2 / RFU, ABCC4 / Fold change vs veh, ABCC4 / RFU, LOC101060439 /// RAP1B / Fold change vs veh, LOC101060439 /// RAP1B / RFU, RFX7 / Fold change vs veh, RFX7 / RFU, GTPBP10 / Fold change vs veh, GTPBP10 / RFU, CNEP1R1 / Fold change vs veh, CNEP1R1 / RFU, BIVM-ERCC5 /// ERCC5 / Fold change vs veh, BIVM-ERCC5 /// ERCC5 / RFU, ILF3 / Fold change vs veh, ILF3 / RFU 11762660_at / Fold change /veh 11762660_at / RFU VCAN (11757783_s_at) / Fold change /veh VCAN (11757783_s_at) / RFU DDX43 (11728927_at) / Fold change /veh DDX43 (11728927_at) / RFU KRT8 (11758188_x_at) / Fold change /veh KRT8 (11758188_x_at) / RFU NKD1 (11759106_at) / Fold change /veh NKD1 (11759106_at) / RFU SRD5A1 (11742802_a_at) / Fold change /veh SRD5A1 (11742802_a_at) / RFU TPSAB1 /// TPSB2 (11721975_s_at) / Fold change /veh TPSAB1 /// TPSB2 (11721975_s_at) / RFU GSTM3 (11746129_a_at) / Fold change /veh GSTM3 (11746129_a_at) / RFU IL23R (11737362_x_at) / Fold change /veh IL23R (11737362_x_at) / RFU TMEM51 (11727254_a_at) / Fold change /veh TMEM51 (11727254_a_at) / RFU PIWIL2 (11732686_x_at) / Fold change /veh PIWIL2 (11732686_x_at) / RFU ORM1 (11744905_x_at) / Fold change /veh ORM1 (11744905_x_at) / RFU CCDC152 (11743942_at) / Fold change /veh CCDC152 (11743942_at) / RFU ECM1 (11717891_a_at) / Fold change /veh ECM1 (11717891_a_at) / RFU IL23R (11748794_a_at) / Fold change /veh IL23R (11748794_a_at) / RFU TNFAIP8L3 (11732012_x_at) / Fold change /veh TNFAIP8L3 (11732012_x_at) / RFU MBOAT4 (11741988_at) / Fold change /veh MBOAT4 (11741988_at) / RFU 11764193_at / Fold change /veh 11764193_at / RFU TMEM53 (11763286_at) / Fold change /veh TMEM53 (11763286_at) / RFU MAGEB2 (11727129_at) / Fold change /veh MAGEB2 (11727129_at) / RFU TMEM200A (11744735_a_at) / Fold change /veh TMEM200A (11744735_a_at) / RFU CCDC152 (11751479_a_at) / Fold change /veh CCDC152 (11751479_a_at) / RFU FAM211A (11726209_a_at) / Fold change /veh FAM211A (11726209_a_at) / RFU RGS16 (11746705_a_at) / Fold change /veh RGS16 (11746705_a_at) / RFU VCAN (11755009_s_at) / Fold change /veh VCAN (11755009_s_at) / RFU RHOB (11743442_s_at) / Fold change /veh RHOB (11743442_s_at) / RFU RGS16 (11720943_a_at) / Fold change /veh RGS16 (11720943_a_at) / RFU RGS16 (11720944_at) / Fold change /veh RGS16 (11720944_at) / RFU, VPS4B / Fold change vs veh, VPS4B / RFU, CREB1 / Fold change vs veh, CREB1 / RFU, DNAJC13 / Fold change vs veh, DNAJC13 / RFU, GNAQ / Fold change vs veh, GNAQ / RFU, CDK5R1 / Fold change vs veh, CDK5R1 / RFU, ZRANB3 / Fold change vs veh, ZRANB3 / RFU, CUL4A / Fold change vs veh, CUL4A / RFU, CCNY / Fold change vs veh, CCNY / RFU, UFL1 / Fold change vs veh, UFL1 / RFU, COG3 / Fold change vs veh, COG3 / RFU, DIAPH2 / Fold change vs veh, DIAPH2 / RFU, SKA2 / Fold change vs veh, SKA2 / RFU, AFF3 / Fold change vs veh, AFF3 / RFU, LMF1 / Fold change vs veh, LMF1 / RFU, IPO11 / Fold change vs veh, IPO11 / RFU, DFFB / Fold change vs veh, DFFB / RFU, FOXP1 / Fold change vs veh, FOXP1 / RFU, CARD8 / Fold change vs veh, CARD8 / RFU, STRN3 / Fold change vs veh, STRN3 / RFU, ADK / Fold change vs veh, ADK / RFU, RASSF2 / Fold change vs veh, RASSF2 / RFU, WIPF1 / Fold change vs veh, WIPF1 / RFU, LARP1B / Fold change vs veh, LARP1B / RFU, RASA1 / Fold change vs veh, RASA1 / RFU, RB1 / Fold change vs veh, RB1 / RFU, PPFIA1 / Fold change vs veh, PPFIA1 / RFU, MAT2A / Fold change vs veh, MAT2A / RFU, CCT5 / Fold change vs veh, CCT5 / RFU, WDR92 / Fold change vs veh, WDR92 / RFU, CUX1 / Fold change vs veh, CUX1 / RFU, TTC7A / Fold change vs veh, TTC7A / RFU, TMEM135 / Fold change vs veh, TMEM135 / RFU, DEPTOR / Fold change vs veh, DEPTOR / RFU, CPM / Fold change vs veh, CPM / RFU, DNAJB6 / Fold change vs veh, DNAJB6 / RFU, CACNA2D3 / Fold change vs veh, CACNA2D3 / RFU, DTX4 / Fold change vs veh, DTX4 / RFU, TFCP2 / Fold change vs veh, TFCP2 / RFU, GMCL1 /// GMCL1P1 / Fold change vs veh, GMCL1 /// GMCL1P1 / RFU, AEBP2 / Fold change vs veh, AEBP2 / RFU, SNHG1 /// SNORD22 /// SNORD25 /// SNORD26 /// SNORD27 /// SNORD28 /// SNORD29 /// SNORD31 / Fold change vs veh, SNHG1 /// SNORD22 /// SNORD25 /// SNORD26 /// SNORD27 /// SNORD28 /// SNORD29 /// SNORD31 / Fold change (Aza/veh), C12orf56 (ProbeSet 11735607_a_at) / Fold change (ACY-1035/veh), C12orf56 (ProbeSet 11735607_a_at) / Fold change (Aza/veh), FGFR1OP (ProbeSet 11751329_s_at) / Fold change (ACY-1035/veh), FGFR1OP (ProbeSet 11751329_s_at) / Fold change (Aza/veh), VPS36 (ProbeSet 11739960_a_at) / Fold change (ACY-1035/veh), VPS36 (ProbeSet 11739960_a_at) / RFU SYPL1 (11715823_x_at) / Fold change /veh SYPL1 (11715823_x_at) / RFU IGFBP7 (11715501_s_at) / Fold change /veh IGFBP7 (11715501_s_at) / RFU REEP3 (11722064_at) / Fold change /veh REEP3 (11722064_at) / RFU IGLL1 (11728026_x_at) / Fold change /veh IGLL1 (11728026_x_at): dose or concentration left out as unconfirmed. The conditions noted are these: ProbeSet 11718977_a_at; LIST B.

With `Nc1ccc(-c2cccs2)cc1NC(=O)c1ccc2c(c1)cc(C1CC1)n2CCN1CCOCC1` [ACY-1035], the “RFU, CAPN2” value is 162.48 RFU.
